Test results taken from PubChem BioAssay (NCI).
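Results reflect a 48-hour exposure of cells in 96-well plates to compound at five concentrations. The concentration for full growth arrest is given as TGI.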

Key:
Assay in all cases: NCI anticancer screen, dose series, 48 h
MDA-MB-231 breast = system: MDA-MB-231 breast
NCI-H522 lung = system: NCI-H522 lung
SR leukemia = system: SR leukemia
NCI-H460 lung = system: NCI-H460 lung
RXF 393 renal = system: RXF 393 renal
BT-549 breast = system: BT-549 breast
UO-31 renal = system: UO-31 renal
OVCAR-8 ovarian = system: OVCAR-8 ovarian
SF-295 CNS = system: SF-295 CNS
MOLT-4 leukemia = system: MOLT-4 leukemia
LOX IMVI melanoma = system: LOX IMVI melanoma
OVCAR-3 ovarian = system: OVCAR-3 ovarian
HT29 colon = system: HT29 colon
DU-145 prostate = system: DU-145 prostate
UACC-62 melanoma = system: UACC-62 melanoma
SF-539 CNS = system: SF-539 CNS
SK-MEL-5 melanoma = system: SK-MEL-5 melanoma
HOP-92 NSCLC = system: HOP-92 NSCLC
M14 melanoma = system: M14 melanoma
786-0 renal = system: 786-0 renal
HCT-116 colon = system: HCT-116 colon
TK-10 renal = system: TK-10 renal
HOP-62 NSCLC = system: HOP-62 NSCLC
NCI-H226 lung = system: NCI-H226 lung
EKVX NSCLC = system: EKVX NSCLC
OVCAR-5 ovarian = system: OVCAR-5 ovarian
MDA-N = system: MDA-N
T-47D breast = system: T-47D breast
NCI-H23 lung = system: NCI-H23 lung
SK-OV-3 ovarian = system: SK-OV-3 ovarian
ACHN renal = system: ACHN renal
NCI/ADR-RES ovarian = system: NCI/ADR-RES ovarian
A549 NSCLC = system: A549 NSCLC
HL-60(TB) leukemia = system: HL-60(TB) leukemia
UACC-257 melanoma = system: UACC-257 melanoma
HCT-15 colon = system: HCT-15 colon
SK-MEL-28 melanoma = system: SK-MEL-28 melanoma
SN12C renal = system: SN12C renal
MCF7 breast = system: MCF7 breast
SNB-75 CNS = system: SNB-75 CNS
PC-3 prostate = system: PC-3 prostate
OVCAR-4 ovarian = system: OVCAR-4 ovarian
K-562 leukemia = system: K-562 leukemia
SF-268 CNS = system: SF-268 CNS
HS 578T breast = system: HS 578T breast
SNB-19 CNS = system: SNB-19 CNS
COLO 205 colon = system: COLO 205 colon
CAKI-1 renal = system: CAKI-1 renal
MDA-MB-435 = system: MDA-MB-435
CCRF-CEM leukemia = system: CCRF-CEM leukemia
KM12 colon = system: KM12 colon
U251 CNS = system: U251 CNS
SW-620 colon = system: SW-620 colon
IGROV1 ovarian = system: IGROV1 ovarian

CC1=C(C(=O)OCc2ccncc2)C(C2=C(C)SCCS2)C(C(=O)OCc2ccncc2)=C(C)N1
TGI (MDA-MB-231 breast): 91.9 µM | TGI (NCI-H522 lung): 54 µM | TGI (SR leukemia): > 100 µM | TGI (NCI-H460 lung): 73.5 µM | TGI (RXF 393 renal): 27.4 µM | TGI (BT-549 breast): 42.2 µM | TGI (UO-31 renal): 37.9 µM | TGI (OVCAR-8 ovarian): > 100 µM | TGI (SF-295 CNS): 38 µM | TGI (MOLT-4 leukemia): 49.2 µM | TGI (LOX IMVI melanoma): 35.8 µM | TGI (OVCAR-3 ovarian): 38.8 µM | TGI (HT29 colon): 40 µM | TGI (DU-145 prostate): > 100 µM | TGI (UACC-62 melanoma): 73.6 µM | TGI (SF-539 CNS): 33 µM | TGI (SK-MEL-5 melanoma): 28.6 µM | TGI (HOP-92 NSCLC): 31.5 µM | TGI (M14 melanoma): 71 µM | TGI (786-0 renal): > 100 µM | TGI (HCT-116 colon): 32.2 µM | TGI (TK-10 renal): > 100 µM | TGI (HOP-62 NSCLC): 58.6 µM | TGI (NCI-H226 lung): 42.7 µM | TGI (EKVX NSCLC): > 100 µM | TGI (OVCAR-5 ovarian): > 100 µM | TGI (MDA-N): 72.8 µM | TGI (T-47D breast): 42.8 µM | TGI (NCI-H23 lung): 76.5 µM | TGI (SK-OV-3 ovarian): 88 µM | TGI (ACHN renal): > 100 µM | TGI (NCI/ADR-RES ovarian): > 100 µM | TGI (A549 NSCLC): > 100 µM | TGI (HL-60(TB) leukemia): 79.3 µM | TGI (UACC-257 melanoma): 50.1 µM | TGI (HCT-15 colon): 64.7 µM | TGI (SK-MEL-28 melanoma): 34 µM | TGI (SN12C renal): 70.6 µM | TGI (MCF7 breast): 52 µM | TGI (SNB-75 CNS): 66.6 µM | TGI (PC-3 prostate): 52.4 µM | TGI (OVCAR-4 ovarian): > 100 µM | TGI (K-562 leukemia): 59.2 µM | TGI (SF-268 CNS): > 100 µM | TGI (HS 578T breast): 58.3 µM | TGI (SNB-19 CNS): 87.5 µM | TGI (COLO 205 colon): > 100 µM | TGI (CAKI-1 renal): > 100 µM | TGI (MDA-MB-435): 38.9 µM | TGI (CCRF-CEM leukemia): 59.8 µM | TGI (KM12 colon): 47.5 µM | TGI (U251 CNS): 33.2 µM | TGI (SW-620 colon): 64.6 µM | TGI (IGROV1 ovarian): > 100 µM
